BindingDB's records for PubMed 39442337 (China Pharmaceutical University)

Experiment: Antagonist activity at PAR4 in mouse washed platelets assessed as inhibition of gamma-PAR4 agonist peptide (AYPGKF-NH2)-induced platelet aggregation preincubated for 5 mins followed by peptide addition and measured after 5 mins by aggregometer

Row | Compound | IC50 [nM]
1 | COc1ncc2c(-c3nc4cc(F)c5c(c4s3)C[C@H](COC(=O)Nc3cc(F)cc(C#N)c3)O5)cc(C)cc2n1 | 8.6
2 | COc1cc(OC)c2nc(-c3cc(C)cc4nc(SC)ncc34)sc2c1 | > 1000
3 | COCOc1ncc2c(-c3nc4c(Cl)cc(OC)cc4s3)cc(C)cc2n1 | 45
4 | COCCCOc1ncc2cc(C)cc(-c3nc4c(Cl)cc(OC)cc4s3)c2n1 | 963
5 | COc1ncc2cc(C)cc(-c3nc4c(Cl)cc(Cl)cc4s3)c2n1 | 356
6 | COc1cc(Cl)c2nc(-c3cc(C)cc4cnc(N(C)C)nc34)sc2c1 | 105
7 | COc1cc(OC)c2nc(-c3cc(C)cc4nc(OC)ncc34)sc2c1 | 223
8 | COc1ncc2c(-c3nc4cc(F)c5c(c4s3)C[C@H](COC(=O)Nc3cnc(C)nc3)O5)cc(C)cc2n1 | 689
9 | COc1cc(F)c2nc(-c3cc(C)cc4nc(OC)ncc34)sc2c1 | 80
10 | COc1cc(Cl)c2nc(-c3cc(C)cc4cnc(C)nc34)sc2c1 | 64
11 | COc1ncc2c(-c3nc4cc(F)c5c(c4s3)C[C@H](COC(=O)Nc3ccc(C(=O)N4CCOCC4)cc3)O5)cc(C)cc2n1 | 417
12 | COc1cc(Cl)c2nc(-c3cc(C)cc4cnc(OCC(C)C)nc34)sc2c1 | > 1000
13 | COc1ncc2c(-c3nc4cc(F)c(OC)cc4s3)cc(C)cc2n1 | 21
14 | COc1ncc2c(-c3nc4cc(F)c5c(c4s3)C[C@H](COC(=O)Nc3ccc(OC)c(F)c3)O5)cc(C)cc2n1 | 169
15 | COc1ncc2c(-c3nc4cc(F)c(OCCO)cc4s3)cc(C)cc2n1 | 27
16 | COCc1ncc2c(-c3nc4cc(F)c(OCCOC(=O)OC)cc4s3)cc(C)cc2n1 | 643
17 | COc1cc(Cl)c2nc(-c3cc(C)cc4cncnc34)sc2c1 | 72
18 | COc1cc(Cl)c2nc(-c3cc(C)cc4cnc(OC(C)C)nc34)sc2c1 | 773
19 | COc1cc2sc(-c3cc(C)cc4nc(SC)ncc34)nc2cc1F | 96
20 | COCc1ncc2c(-c3nc4cc(F)c(OCCOC(=O)N5CCOCC5)cc4s3)cc(C)cc2n1 | 756
21 | COc1cc(Cl)c2nc(-c3cc(C)cc4cnc(N5CCCCC5)nc34)sc2c1 | 335
22 | COCOc1ncc2c(-c3nc4cc(F)c(OC)cc4s3)cc(C)cc2n1 | 25

Row | Compound | IC50 [nM]
23 | COc1ncc2c(-c3nc4cc(F)c5c(c4s3)C[C@@H](COC(=O)N3CCOCC3)O5)cc(C)cc2n1 | 304
24 | COCc1ncc2c(-c3nc4cc(F)c(OCCOC(=O)Nc5ccc(C(=O)N6CCOCC6)cc5)cc4s3)cc(C)cc2n1 | 89
25 | COCOc1ncc2c(-c3nc4ccc(OC)cc4s3)cc(C)cc2n1 | 109
26 | COCc1ncc2c(-c3nc4cc(F)c(OCCOC(=O)Nc5cc(F)cc(C#N)c5)cc4s3)cc(C)cc2n1 | 19
27 | COCOc1ncc2c(-c3nc4c(F)cc(OC)cc4s3)cc(C)cc2n1 | 89
28 | COCc1ncc2c(-c3nc4cc(F)c(OCCOC(=O)Nc5cccc(C#N)c5)cc4s3)cc(C)cc2n1 | 69
29 | CNc1ncc2c(-c3nc4c(Cl)cc(OC)cc4s3)cc(C)cc2n1 | 223
30 | COc1ncc2cc(C)cc(-c3nc4cc(F)c(OC)cc4s3)c2n1 | 30
31 | COc1cc(Cl)c2nc(-c3cc(C)cc4cnc(OC)nc34)sc2c1 | 32
32 | COc1ccc(NC(=O)OC[C@H]2Cc3c(c(F)cc4nc(-c5cc(C)cc6nc(OC)ncc56)sc34)O2)c(C)c1 | 187
33 | COc1cc(C)c2nc(-c3cc(C)cc4nc(OC)ncc34)sc2c1 | 163
34 | COc1ncc2c(-c3nc4cc(F)c5c(c4s3)C[C@H](COC(=O)Nc3ccc(C)cc3F)O5)cc(C)cc2n1 | 51
35 | COc1cc(F)c2nc(-c3cc(C)cc4cnc(OC)nc34)sc2c1 | 41
36 | COc1cc(Cl)c2nc(-c3cc(C)cc4nc(OC(C)C)ncc34)sc2c1 | 456
37 | COc1ncc2c(-c3nc4cc(F)c5c(c4s3)C[C@H](COC(=O)Nc3cccc(C#N)c3)O5)cc(C)cc2n1 | 15
38 | COc1cc(Cl)c2nc(-c3cc(C)cc4nc(OC)ncc34)sc2c1 | 46
39 | COc1ncc2cc(C)cc(-c3nc4c(C)cc5c(c4s3)OCCO5)c2n1 | 117
40 | COc1ccc(NC(=O)OC[C@H]2Cc3c(c(F)cc4nc(-c5cc(C)cc6nc(OC)ncc56)sc34)O2)cn1 | 356
41 | COc1ncc2c(-c3nc4cc(F)c5c(c4s3)C[C@H](COC(=O)Nc3ccc(C)cc3)O5)cc(C)cc2n1 | 73
42 | COc1ncc2c(-c3nc4cc(F)c5c(c4s3)C[C@@H](COC(=O)Nc3ccc(C(=O)N4CCOCC4)cc3)O5)cc(C)cc2n1 | 165
43 | COc1ncc2c(-c3nc4cc(F)c5c(c4s3)C[C@@H](COC(=O)Nc3cc(F)cc(C#N)c3)O5)cc(C)cc2n1 | 109
44 | COc1cc(Cl)c2nc(-c3cc(C)cc4cnc(N5CCOCC5)nc34)sc2c1 | 220

Row | Compound | IC50 [nM]
45 | CCOc1ncc2cc(C)cc(-c3nc4c(Cl)cc(OC)cc4s3)c2n1 | 567
46 | COc1ccc(NC(=O)OC[C@H]2Cc3c(c(F)cc4nc(-c5cc(C)cc6nc(OC)ncc56)sc34)O2)cc1 | 96
47 | COc1cc(Cl)c2nc(-c3cc(C)cc4nc(SC)ncc34)sc2c1 | 136
48 | CCOc1ncc2c(-c3nc4c(Cl)cc(OC)cc4s3)cc(C)cc2n1 | 223
49 | COCCOc1ncc2cc(C)cc(-c3nc4c(Cl)cc(OC)cc4s3)c2n1 | > 1000
50 | CCOc1ncc2c(-c3nc4cc(F)c(OC)cc4s3)cc(C)cc2n1 | 369
51 | CNc1ncc2cc(C)cc(-c3nc4c(Cl)cc(OC)cc4s3)c2n1 | 98
52 | COc1cc(Cl)c2nc(-c3cc(C)cc4cnc(N5CCC6(CC5)OCCO6)nc34)sc2c1 | > 1000
53 | COc1ccc2nc(-c3cc(C)cc4cnc(OC)nc34)sc2c1 | 89
54 | COc1ncc2cc(C)cc(-c3nc4ccccc4s3)c2n1 | 563
55 | COc1cc(Cl)c2nc(-c3cc(C)cc4cnc(N5CC6(COC6)C5)nc34)sc2c1 | > 1000
56 | COc1cc(Cl)c2nc(-c3cc(C)cc4cnc(OC5CCCC5)nc34)sc2c1 | 986
57 | COC(=O)OC[C@H]1Cc2c(c(F)cc3nc(-c4cc(C)cc5nc(OC)ncc45)sc23)O1 | 535
58 | COc1cc(Cl)c2nc(-c3cc(C)cc4cnc(SC)nc34)sc2c1 | 89
59 | COc1cc(Cl)c2nc(-c3cc(C)cc4cnc(OC(F)F)nc34)sc2c1 | 87
60 | CCOc1ncc2c(-c3nc4c(F)cc(OC)cc4s3)cc(C)cc2n1 | 274
61 | COc1ncc2c(-c3nc4ccccc4s3)cc(C)cc2n1 | 368
62 | COc1ccc2nc(-c3cc(C)cc4nc(OC(C)C)ncc34)sc2c1 | 362
63 | COc1ncc2c(-c3nc4cc(F)c5c(c4s3)C[C@H](COC(=O)N3CCOCC3)O5)cc(C)cc2n1 | 168
64 | COc1ccc2nc(-c3cc(C)cc4nc(SC)ncc34)sc2c1 | 223
65 | COc1ccc2nc(-c3cc(C)cc4nc(OC)ncc34)sc2c1 | 103

Experiment: Antagonist activity at PAR4 in human platelet rich plasma assessed as inhibition of gamma-PAR4 agonist peptide (AYPGKF-NH2)-induced platelet aggregation preincubated for 5 mins followed by peptide addition and measured after 5 mins by aggregometer

Row | Compound | IC50 [nM]
66 | COc1ncc2c(-c3nc4cc(F)c5c(c4s3)C[C@H](COC(=O)Nc3cc(F)cc(C#N)c3)O5)cc(C)cc2n1 | 3.5
67 | COCc1ncc2c(-c3nc4cc(F)c(OCCOC(=O)Nc5cc(F)cc(C#N)c5)cc4s3)cc(C)cc2n1 | 9.5
68 | COc1ncc2c(-c3nc4cc(F)c5c(c4s3)C[C@H](COC(=O)Nc3cccc(C#N)c3)O5)cc(C)cc2n1 | 6.4
